According to the NIST ThermoML archive (doi:10.1021/je8003782):
Several values for one entry are separate records, joined by “and”; a condition that tells them apart may be missing. Equal entries are not always repeated. Numbers after ± are expanded uncertainties.

Assays:
[1] = 101.3 kPa, Liquid
[2] = xn = mol fraction of the nth substance listed; conditions: 101 kPa, Liquid

SMILES | mass density ([1]; 293.15 K) | viscosity ([1]; 293.15 K) | mass density ([1]; 298.15 K) | viscosity ([1]; 298.15 K) | mass density ([1]; 303.15 K) | viscosity ([1]; 303.15 K) | mass density ([1]; 308.15 K) | viscosity ([1]; 308.15 K) | mass density ([1]; 313.15 K) | viscosity ([1]; 313.15 K) | mass density ([1]; 318.15 K) | viscosity ([1]; 318.15 K) | mass density ([1]; 323.15 K) | viscosity ([1]; 323.15 K) | mass density ([1]; 328.15 K) | viscosity ([1]; 328.15 K) | mass density ([1]; 333.15 K) | viscosity ([1]; 333.15 K) | mass density ([1]; 338.15 K) [kg/m3] | viscosity ([1]; 338.15 K) [mPa·s] | other results
CC(=O)O [acetic acid] | 1049.42 ± 0.86 kg/m3 and 1049.42 ± 1.7 kg/m3 | 1.204 ± 0.017 mPa·s and 1.204 ± 0.029 mPa·s | 1043.76 ± 0.82 kg/m3 and 1043.76 ± 1.6 kg/m3 | 1.114 ± 0.016 mPa·s and 1.114 ± 0.027 mPa·s | 1038.1 ± 0.79 kg/m3 and 1038.1 ± 1.5 kg/m3 | 1.037 ± 0.016 mPa·s and 1.037 ± 0.026 mPa·s | 1032.44 ± 0.75 kg/m3 and 1032.44 ± 1.4 kg/m3 | 0.964 ± 0.015 mPa·s and 0.964 ± 0.024 mPa·s | 1026.77 ± 0.72 kg/m3 and 1026.77 ± 1.4 kg/m3 | 0.902 ± 0.015 mPa·s and 0.902 ± 0.023 mPa·s | 1021.11 ± 0.68 kg/m3 and 1021.11 ± 1.3 kg/m3 | 0.841 ± 0.014 mPa·s and 0.841 ± 0.022 mPa·s | 1015.44 ± 0.64 kg/m3 and 1015.44 ± 1.2 kg/m3 | 0.787 ± 0.014 mPa·s and 0.787 ± 0.021 mPa·s | 1009.77 ± 0.61 kg/m3 and 1009.77 ± 1.2 kg/m3 | 0.741 ± 0.013 mPa·s and 0.741 ± 0.02 mPa·s | 1004.09 ± 0.57 kg/m3 and 1004.09 ± 1.1 kg/m3 | 0.697 ± 0.013 mPa·s and 0.697 ± 0.019 mPa·s | 998.38 ± 0.56 | 0.657 ± 0.013 | –
CC(=O)O [acetic acid] + C1N2CN3CN1CN(C2)C3 | – | – | – | – | – | – | – | – | – | – | – | – | – | – | – | – | – | – | – | – | mass density ([2]; 293.15 K, x2 = 0): 1049.42 ± 1.7 kg/m3; viscosity ([2]; 293.15 K, x2 = 0): 1.204 ± 0.029 mPa·s; mass density ([2]; 298.15 K, x2 = 0): 1043.76 ± 1.6 kg/m3; viscosity ([2]; 298.15 K, x2 = 0): 1.114 ± 0.027 mPa·s; mass density ([2]; 303.15 K, x2 = 0): 1038.1 ± 1.5 kg/m3; viscosity ([2]; 303.15 K, x2 = 0): 1.037 ± 0.026 mPa·s; mass density ([2]; 308.15 K, x2 = 0): 1032.44 ± 1.4 kg/m3; viscosity ([2]; 308.15 K, x2 = 0): 0.964 ± 0.024 mPa·s; mass density ([2]; 313.15 K, x2 = 0): 1026.77 ± 1.4 kg/m3; viscosity ([2]; 313.15 K, x2 = 0): 0.902 ± 0.023 mPa·s; mass density ([2]; 318.15 K, x2 = 0): 1021.11 ± 1.3 kg/m3; viscosity ([2]; 318.15 K, x2 = 0): 0.841 ± 0.022 mPa·s; mass density ([2]; 323.15 K, x2 = 0): 1015.44 ± 1.2 kg/m3; viscosity ([2]; 323.15 K, x2 = 0): 0.787 ± 0.021 mPa·s; mass density ([2]; 328.15 K, x2 = 0): 1009.77 ± 1.2 kg/m3; viscosity ([2]; 328.15 K, x2 = 0): 0.741 ± 0.02 mPa·s; mass density ([2]; 333.15 K, x2 = 0): 1004.09 ± 1.1 kg/m3; viscosity ([2]; 333.15 K, x2 = 0): 0.697 ± 0.019 mPa·s
CC(=O)O [acetic acid] + CC(=O)OC(C)=O | – | – | – | – | – | – | – | – | – | – | – | – | – | – | – | – | – | – | – | – | mass density ([2]; 293.15 K, x1 = 1): 1049.42 ± 0.86 kg/m3; viscosity ([2]; 293.15 K, x1 = 1): 1.204 ± 0.017 mPa·s; mass density ([2]; 298.15 K, x1 = 1): 1043.76 ± 0.82 kg/m3; viscosity ([2]; 298.15 K, x1 = 1): 1.114 ± 0.016 mPa·s; mass density ([2]; 303.15 K, x1 = 1): 1038.1 ± 0.79 kg/m3; viscosity ([2]; 303.15 K, x1 = 1): 1.037 ± 0.016 mPa·s; mass density ([2]; 308.15 K, x1 = 1): 1032.44 ± 0.75 kg/m3; viscosity ([2]; 308.15 K, x1 = 1): 0.964 ± 0.015 mPa·s; mass density ([2]; 313.15 K, x1 = 1): 1026.77 ± 0.72 kg/m3; viscosity ([2]; 313.15 K, x1 = 1): 0.902 ± 0.015 mPa·s; mass density ([2]; 318.15 K, x1 = 1): 1021.11 ± 0.68 kg/m3; viscosity ([2]; 318.15 K, x1 = 1): 0.841 ± 0.014 mPa·s; mass density ([2]; 323.15 K, x1 = 1): 1015.44 ± 0.64 kg/m3; viscosity ([2]; 323.15 K, x1 = 1): 0.787 ± 0.014 mPa·s; mass density ([2]; 328.15 K, x1 = 1): 1009.77 ± 0.61 kg/m3; viscosity ([2]; 328.15 K, x1 = 1): 0.741 ± 0.013 mPa·s; mass density ([2]; 333.15 K, x1 = 1): 1004.09 ± 0.57 kg/m3; viscosity ([2]; 333.15 K, x1 = 1): 0.697 ± 0.013 mPa·s; mass density ([2]; 338.15 K, x1 = 1): 998.38 ± 0.56 kg/m3; viscosity ([2]; 338.15 K, x1 = 1): 0.657 ± 0.013 mPa·s
CC(=O)OC(C)=O [ethanoic anhydride] | 1080.89 ± 1.5 kg/m3 | 0.888 ± 0.016 mPa·s | 1074.8 ± 1.5 kg/m3 | 0.829 ± 0.015 mPa·s | 1068.7 ± 1.4 kg/m3 | 0.778 ± 0.015 mPa·s | 1062.61 ± 1.4 kg/m3 | 0.729 ± 0.014 mPa·s | 1056.49 ± 1.4 kg/m3 | 0.688 ± 0.014 mPa·s | 1050.38 ± 1.3 kg/m3 | 0.648 ± 0.014 mPa·s | 1044.24 ± 1.3 kg/m3 | 0.61 ± 0.013 mPa·s | 1038.07 ± 1.2 kg/m3 | 0.58 ± 0.013 mPa·s | 1031.9 ± 1.2 kg/m3 | 0.548 ± 0.013 mPa·s | 1025.7 ± 1.1 | 0.521 ± 0.013 | –
